For orientation: IC50 means the concentration that gives 50% inhibition.

Series [1] concerns BT474-M3 cells. In words: Cell proliferation assay (CellTiter-Glo). Type of series: cell-based. The following applies: 24 hours. The procedure: Cells (8,000/well) are seeded into 96-well plates and incubated overnight. Inhibitor is added at doses indicated and cells are treated for 24 hours. For experiments with ligand stimulation, cells are serum-starved overnight prior to addition of inhibitor and 2 nM heregulin 1-[…] (R&D Systems, Minneapolis, Minn.) is added 1 hour post-inhibitor treatment in media containing 5% FBS. Numbers of viable cells are measured as an indicator of cell proliferation using the CellTiter-Glo® Luminescent Cell Viability Assay (Promega, Madison, Wis.).
(Cellular ATP, detected with luciferase, serves as a proxy for viable cell number.)

Series [2] deals with BT474-M3 breast cancer xenograft. Description: BT474-M3 breast cancer xenograft efficacy study, MM-111 and lapatinib. In kind it is in vivo, mice. As to conditions: from day 40 to day 7; MM-111 weekly, lapatinib daily at optimal efficacious dose. The procedure:
Tumor xenografts are established by subcutaneous injection of BT474-M3 cells into the flank of 5-6 weeks old female athymic nude mice (nu/nu; Charles River Labs, Wilmington, Mass.). Mice receive a subcutaneous 60 day, slow-release estrogen implant in the opposite flank (0.72 mg pellet; Innovation Research of America, Sarasota, Fla.) 24 hours prior to the injection of cells.
The percent change in tumor volume from day 40 to day 7 (inoculation) was calculated for each group (FIG. 6b).

For a further series, the system named is BT474-M3-Aro cells. Description: Aromatase-overexpressing BT474-M3 cell proliferation assay (WST-1). Type of series: cell-based. As to conditions: androstenedione (200 nM) and heregulin (2 nM), three days; ratio 10:20:1 MM-111 to letrozole to lapatinib. The procedure: BT474-M3 cells were transfected with PS100010 vector containing human aromatase (gene accession No: NM_000103.2). Cells with stable expression of aromatase (BT474-M3-Aro) were obtained after selection with 400 μg/ml geneticin. For cell proliferation assay, BT474-M3-Aro cells (5000 cells/well) were plated in phenol red-free RPMI-1640 medium containing 5% charcoal-stripped FBS into 96-well plate. After overnight incubation, indicated treatments were introduced in the presence of androstenedione (A-4; 200 nM) and heregulin (HRG; 2 nM). […] Cell viability in the presence of 5% charcoal-stripped FBS was set as control (100%).
Androstenedione is a steroid hormone that is converted to estrogen by aromatase.
In general terms: Tetrazolium assays rely on reduction of a dye to a coloured formazan, in cell work by metabolically active cells.

Series [3] concerns ErbB3 phosphorylation (pErbB3). In words: Cell signaling assay, pErbB3 ELISA in heregulin-stimulated BT474-M3 cells. Type of series: cell-based. The procedure: (§1) Cell lysates are probed for phospho-ErbB3 (pErbB3), and phospho-AKT (pAKT) by ELISA as described previously (Schoeberl et al, 2009). Inhibitor IC50 values are calculated by fitting dose-response data to a 4-parameter sigmoidal curve (GraphPad Prism®, GraphPad Software, Inc., La Jolla, Calif.).
The amount of pErbB3 was measured by ELISA using the methods described above or minor variations thereof. Model-generated dose-response curves overlay the experimental data (FIG. 7a). […] Untreated and heregulin-stimulated cells were probed for pErbB3 and pAKT and the IC50 was calculated (FIG. 7b).
(§2) CRL-1504™), cells were incubated with serial dilutions of either inhibitor for 15 minutes, 1 hour, 4 hours, and 24 hours followed by stimulation with 5 nM heregulin for 10 min. Amounts of pAKT and pErbB3 were measured by ELISA essentially as described.

Series [4] deals with BT474-M3 cells. Description: Apoptosis assay (Annexin V / PI, FACS) in spheroids. In kind it is cell-based. The following applies: MM-111 100 nM, lapatinib 33 nM; for Percent cell population: Early apoptosis: Annexin V positive, PI negative; for Percent cell population: Dead cells: PI positive, Annexin V negative. The procedure:
After overnight incubation, spheroids are treated with inhibitor at concentrations indicated for 72 hours. Spheroids are then trypsinized and combined with floating cells. Cells are washed twice with cold PBS and suspended in binding buffer (0.01 M HEPES, pH 7.4; 0.14 M NaCl; 2.5 mM CaCl2). Cells are then stained with FITC-conjugated Annexin V and PI. Apoptotic cells are quantified on a FACSCalibur™ FACS machine.
Cells were then stained with Annexin V and propidium iodide (PI) and quantitated using FACS (FIG. 11, Table 2). Cell populations staining positive with Annexin V and PI were quantified as late apoptotic, cell populations staining positive with Annexin V but not PI were quantified as early apoptotic, cell populations staining positive for PI but not Annexin V were quantified as dead cells and populations of cells not stained with either Annexin V or PI were considered alive and not apoptotic (Table 2).

The subject of series [5] is BT474-M3 cells. Description: Spheroid in vitro tumor model assay, estrogen-stimulated. Type of series: cell-based. The following applies: estrogen-stimulated BT474-M3 spheroids, dose range, six days. An excerpt:
Cells are continued to culture for six days.
Multicellular spheroids are used to simulate the growth and microenvironmental conditions of tumors in vitro.

For series [6], the system named is BT474-M3 cells. Description: Spheroid in vitro tumor model assay, dual ligand (estrogen and heregulin)-stimulated. In kind it is cell-based. As to conditions: estrogen and heregulin (dual ligand)-stimulated BT474-M3 spheroids, dose range.
Protocol: (§3) BT474-M3 wild type cells (2000 cells/well) are plated in Ultra Low Cluster 96-well plate (Costar). After overnight incubation, indicated treatments are introduced to the plate. Cells are continued to culture for six days. Spheroids are then examined by Nikon microscope and analyzed by MetaMorph Image Analysis Software (Molecular Devices). The spheroid size from cells cultured in medium containing 10% FBS is set as control.
(§4) The percent of spheroid growth inhibition (normalized to untreated, stimulated control) was determined for 1 μM doses of inhibitor treatment.
In series [7] the test system is BT474-M3 cells. In words: Spheroid in vitro tumor model assay, heregulin-stimulated. Type of series: cell-based. As to conditions: heregulin-stimulated BT474-M3 spheroids, dose range.
Protocol: as §3, §4
For series [8], the system named is AKT phosphorylation (pAKT). In words: Cell signaling assay, pAKT ELISA in heregulin-stimulated ZR75-30 cells. In kind it is cell-based. The following applies: 5 nM heregulin for 10 min, read-out: IC50, reduction of pAKT levels. As to the method:
as §1, §2

The subject of a further series is ErbB2 and ErbB3. Description: Affinity of MM-111 antigen-binding sites.
Series [9] deals with AKT phosphorylation (pAKT). In words: Cell signaling assay, pAKT ELISA in heregulin-stimulated BT474-M3 cells. In kind it is cell-based. As to conditions: 5 nM heregulin for 10 min, read-out: IC50, reduction of pAKT levels. The procedure:
as §1, §2
For orientation: ELISA stands for enzyme-linked immunosorbent assay.

Series [10] deals with ErbB3 phosphorylation (pErbB3). Description: Cell signaling assay, pErbB3 ELISA in heregulin-stimulated ZR75-30 cells. Type of series: cell-based. The following applies: 5 nM heregulin for 10 min, read-out: IC50, reduction of pErbB3 levels. The procedure:
as §1, §2

Entries after “also recorded” stand apart in the source; their conditions may differ.

As to `CS(=O)(=O)CCNCc1ccc(-c2ccc3ncnc(Nc4ccc(OCc5cccc(F)c5)c(Cl)c4)c3c2)o1` [lapatinib, reference compound], the “inhibition of cell proliferation (viable cells)” value in the series on BT474-M3 cells [1] (BT474-M3 cells in serum plus 2 nM heregulin) was “about 23%”. Besides, in the series with BT474-M3 cells [1] (unstimulated BT474-M3 cells in serum), the “inhibition of cell proliferation (viable cells)” value is roughly 50%. For the same compound, the “percent change in tumor volume” value in series [2] is −11%. Besides, the “inhibition of cell growth (in words)” value in the series on BT474-M3-Aro cells is given as “did not result in growth inhibition except at high concentrations”. In addition, the “inhibition of heregulin-activated signaling (pErbB3, pAKT; in words)” value in [3] (BT474-M3 cells, 5 nM heregulin 10 min versus unstimulated, 1-hour incubation) is recorded as “not an effective inhibitor of heregulin-activated signaling”. Also, in the series with BT474-M3 cells [4] (72 hours), the “Percent cell population: Live cells” value came out at 67.9%, the “Percent cell population: Early apoptosis” value is 16.8% and the “Percent cell population: Dead cells” value amounted to 0.73%. The total apoptotic cells entry in the series on BT474-M3 cells [4] was “about 31%”.
Regarding `N#Cc1ccc(C(c2ccc(C#N)cc2)n2cncn2)cc1` [letrozole], the “inhibition of cell growth (in words)” value with BT474-M3-Aro cells was “did not result in significant inhibition of spheroid cell growth”.
Consider `C[C@]12CC[C@@H]3c4ccc(O)cc4C[C@@H](CCCCCCCCC[S+]([O-])CCCC(F)(F)C(F)(F)F)[C@H]3[C@@H]1CC[C@@H]2O` (some centres unmarked) [fulvestrant], for which the “inhibition of spheroid growth (in words)” value with BT474-M3 cells [5] is given as “showed inhibitory effects on spheroid growth”; in the series with BT474-M3 cells [6], “inhibited spheroid growth”; with BT474-M3 cells [7] it was “did not inhibit heregulin stimulated spheroid growth”.
In the case of “MM-111: bispecific anti-ErbB2/anti-ErbB3 antibody, scFv HSA conjugate, amino acid sequence SEQ ID NO:1”, the “inhibition of spheroid growth (in words)” value in the series on BT474-M3 cells [5] is recorded as “showed inhibitory effects on spheroid growth”; in the series on BT474-M3 cells [6], “inhibited spheroid growth; also recorded: greater inhibitory effects than trastuzumab”; in the series with BT474-M3 cells [7], “inhibited heregulin-induced spheroid growth”. Moreover, the IC50 was 4 nM in series [8]; 10 nM in series [9]; 5 nM in series [10]; 3 nM in [3] (BT474-M3 cells, 5 nM heregulin for 10 min, read-out: IC50, reduction of pErbB3 levels). In addition, the “affinity of ErbB2 antigen-binding site relative to ErbB3 antigen-binding site” value in the series on ErbB2 and ErbB3 is recorded as “about 30 times”. In addition, in series [2], the “percent change in tumor volume” value was 14%. In addition, the “inhibition of cell growth (in words)” value in the series on BT474-M3-Aro cells is given as “inhibited cell proliferation to a similar extent”. For the same compound, the “ability to inhibit heregulin-induced ErbB3 activation relative to lapatinib” value in series [3] (incubation 15 minutes up to 24 hours) is listed as “superior to lapatinib by greater than an order of magnitude”. In addition, in the series on BT474-M3 cells [4] (72 hours), the “Percent cell population: Live cells” value turned out to be 78.9%. For the same compound, the “Percent cell population: Late apoptosis” value with BT474-M3 cells [4] (72 hours, Annexin V and PI positive) worked out at 7.5%. The “Percent cell population: Early apoptosis” value in the series with BT474-M3 cells [4] (72 hours) stood at 12.9%. Moreover, the “Percent cell population: Dead cells” value with BT474-M3 cells [4] (72 hours) came out at 0.74%. Further, the total apoptotic cells result in the series with BT474-M3 cells [4] is “about 20%”.

The record behind these values is patent US20140056898A1, “COMBINATION THERAPIES COMPRISING ANTI-ERBB3 AGENTS” (priority 2011, published 2014).
